Results: ChEMBL document CHEMBL5260850, “The exploration of aza-quinolines as hematopoietic prostaglandin D synthase (H-PGDS) inhibitors with low brain exposure” (Bioorg Med Chem, 2020)
≈ marks a conversion by molar mass, not a printed value. Calls of active or inactive are those of the source. No cut-off for these calls is given here.

Tests used:
[1] = Toxicity in dog assessed as degeneration of zona glomerulosa in adrenal gland at 75 mg/kg/day, po QD for 4 days by microscopic analysis; assay type: organism-based, Canis lupus familiaris; settings: in vivo, 96 h, time 4 day
[2] = Toxicity in dog assessed as tolerance upto 30 mg/kg/day, po QD for 4 days; assay type: organism-based, Canis lupus familiaris; settings: in vivo, 96 h, time 4 day
[3] = Free Cmax in eccentric contraction-induced muscle injury C57BL/6N mouse model administered orally 10 mins prior to unilateral eccentric contraction and QD for 16 days thereafter; assay type: ADME; settings: in vivo, po, 384 h, time 16 day
[4] = tested on: Mus musculus; assay: Anti-inflammatory activity against mdx mouse assessed as inhibition of muscle function loss by measuring functional recovery of injured limb muscles administered orally 10 mins prior to unilateral eccentric contraction and QD for 43 days thereafter; settings: 1032 h, route po, time 43 day
[5] = Apparent permeability, Papp of the compound at pH 7.4 incubated for 3 hrs by AMP based liquid chromatography; assay type: ADME; settings: not told
[6] = Toxicity in Wistar Han rat assessed as morphological changes in adrenal gland at 30 mg/kg/day, po administered QD for 7 days by microscopic analysis; assay type: organism-based; settings: in vivo, 168 h, time 7 day
[7] = Cmax in dog at 10 mg/kg/day, po QD for 4 days; assay type: ADME, organism-based, Canis lupus familiaris; parameters: dose 10 mg/kg/day, time 4 day, route po; settings: in vivo
[8] = Terminal half life in mouse at 1 mg/kg, iv; assay type: ADME, organism-based; settings: in vivo, read-out: beta t1/2 (converted)
[9] = AUC in dog at 10 mg/kg/day, po QD for 4 days; assay type: ADME, organism-based, Canis lupus familiaris; parameters: dose 10 mg/kg/day, time 4 day, route po; settings: in vivo
[10] = AUC in Wistar Han rat at 10 mg/kg/day, po QD for 7 days; assay type: ADME, organism-based; parameters: dose 10 mg/kg/day, time 7 day, route po; settings: in vivo
[11] = Terminal half life in dog at 0.5 mg/kg, iv; assay type: ADME, organism-based, Canis lupus familiaris; settings: in vivo, read-out: beta t1/2 (converted)
[12] = Ratio of drug level in brain to blood in mouse at 1 mg/kg, iv; assay type: ADME, organism-based; settings: read-out: BBR
[13] = target: Sodium-dependent noradrenaline transporter (Homo sapiens) (UniProt P23975); settings: dose <= 10000.0 nM
Description: Inhibition of NET (unknown origin) upto 10000 nM

[14] = target: Mu-type opioid receptor (Homo sapiens) (UniProt P35372); settings: dose <= 10000.0 nM
Description: Inhibition of mu opioid receptor (unknown origin) upto 10000 nM

[15] = target: Histamine H1 receptor (Homo sapiens) (UniProt P35367); settings: dose <= 10000.0 nM
Sequence of Histamine H1 receptor (Homo sapiens) (P35367 whole entry): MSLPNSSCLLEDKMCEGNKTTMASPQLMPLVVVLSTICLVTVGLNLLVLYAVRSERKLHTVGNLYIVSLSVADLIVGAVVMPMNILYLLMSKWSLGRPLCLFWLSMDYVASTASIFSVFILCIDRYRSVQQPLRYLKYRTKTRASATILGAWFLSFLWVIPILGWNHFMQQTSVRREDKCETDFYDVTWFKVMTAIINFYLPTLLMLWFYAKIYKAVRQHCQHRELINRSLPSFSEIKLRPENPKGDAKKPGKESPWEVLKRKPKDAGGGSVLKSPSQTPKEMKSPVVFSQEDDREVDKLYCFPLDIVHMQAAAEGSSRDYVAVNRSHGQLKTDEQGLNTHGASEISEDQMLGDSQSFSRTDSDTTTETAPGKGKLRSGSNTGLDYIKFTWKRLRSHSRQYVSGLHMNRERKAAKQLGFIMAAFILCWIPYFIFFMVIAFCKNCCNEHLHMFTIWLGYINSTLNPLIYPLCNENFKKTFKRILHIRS
Description: Inhibition of histamine H1 receptor (unknown origin) upto 10000 nM

[16] = Toxicity in compound 48/80-treated C57BL/6J mouse assessed as seizures administered orally with compound and 1 hr later treated with compound 48/80 for 7 mins; settings: in vivo, po, 1.117 h, time 67 min
[17] = target: Phosphatidylinositol 4,5-bisphosphate 3-kinase catalytic subunit gamma isoform (Homo sapiens) (UniProt P48736); settings: dose <= 10000.0 nM
Sequence of Phosphatidylinositol 4,5-bisphosphate 3-kinase catalytic subunit gamma isoform (Homo sapiens) (P48736 whole entry, looked up, canonical isoform): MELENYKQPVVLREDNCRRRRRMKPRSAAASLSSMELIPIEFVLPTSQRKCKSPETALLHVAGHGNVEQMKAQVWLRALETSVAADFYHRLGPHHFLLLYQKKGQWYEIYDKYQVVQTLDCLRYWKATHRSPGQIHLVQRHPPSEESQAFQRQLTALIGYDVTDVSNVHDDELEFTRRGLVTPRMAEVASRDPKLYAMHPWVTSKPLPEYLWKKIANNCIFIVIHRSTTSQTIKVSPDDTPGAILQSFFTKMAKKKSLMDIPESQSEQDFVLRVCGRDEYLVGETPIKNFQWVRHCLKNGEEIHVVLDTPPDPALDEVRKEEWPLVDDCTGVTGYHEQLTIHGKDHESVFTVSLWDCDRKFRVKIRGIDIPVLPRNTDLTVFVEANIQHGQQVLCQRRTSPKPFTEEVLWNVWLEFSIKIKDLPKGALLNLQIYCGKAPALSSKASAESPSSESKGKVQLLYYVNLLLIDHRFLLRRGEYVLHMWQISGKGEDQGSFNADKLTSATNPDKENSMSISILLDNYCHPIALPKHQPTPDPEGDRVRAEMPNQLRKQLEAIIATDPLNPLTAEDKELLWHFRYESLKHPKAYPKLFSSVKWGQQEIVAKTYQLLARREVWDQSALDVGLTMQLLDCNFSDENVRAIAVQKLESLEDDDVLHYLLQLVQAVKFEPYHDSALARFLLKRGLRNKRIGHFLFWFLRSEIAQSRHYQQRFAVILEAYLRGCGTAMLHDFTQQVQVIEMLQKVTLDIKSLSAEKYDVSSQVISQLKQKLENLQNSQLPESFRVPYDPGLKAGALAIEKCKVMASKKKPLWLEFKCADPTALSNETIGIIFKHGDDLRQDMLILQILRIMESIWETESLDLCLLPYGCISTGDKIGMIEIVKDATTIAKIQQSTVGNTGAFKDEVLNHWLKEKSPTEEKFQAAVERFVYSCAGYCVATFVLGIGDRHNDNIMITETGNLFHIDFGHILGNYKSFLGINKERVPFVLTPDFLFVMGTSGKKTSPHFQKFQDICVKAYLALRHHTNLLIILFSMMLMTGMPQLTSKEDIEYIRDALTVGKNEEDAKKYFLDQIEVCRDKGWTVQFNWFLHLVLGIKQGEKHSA
Description: Inhibition of PI3K-gamma (unknown origin) upto 10000 nM

[18] = Toxicity in Wistar Han rat assessed as proximal tubular vacuolation and hyaline cast formation in kidney at 100 mg/kg/day, po administered QD for 7 days by microscopic analysis; assay type: organism-based; settings: in vivo, 168 h, time 7 day
[19] = tested on: Mus musculus; assay: Anti-inflammatory activity against C57BL6/N mouse assessed as reduction in LPS-induced PGD2 level in plasma administered orally with compound and 1 hr later treated with LPS and measured after 30 mins by LC-MS/MS analysis; assay type: functional; settings: route po, time 1.5 hrs
[20] = Toxicity in C57BL/6N mouse assessed as seizures administered orally for 10 mins prior to unilateral eccentric contraction and QD for 16 days thereafter; settings: in vivo, po, 384 h, time 16 day
[21] = Toxicity in Wistar Han rat assessed as morphological changes in thymus at 30 mg/kg/day, po administered QD for 7 days by microscopic analysis; assay type: organism-based; settings: in vivo, 168 h, time 7 day
[22] = tested on: Mus musculus; assay: Anti-inflammatory activity against mdx mouse assessed as inhibition of muscle function loss by measuring functional recovery of injured limb muscles at 0.1 to 10 mg/kg, po administered 10 mins prior to unilateral eccentric contraction and QD for 43 days thereafter; parameters: scale not given: the % may be the effect or the level left; settings: dose 0.1-10 mg/kg, time 43 day
[23] = target: cGMP-inhibited 3',5'-cyclic phosphodiesterase 3A (Homo sapiens) (UniProt Q14432); settings: dose <= 10000.0 nM
Sequence of cGMP-inhibited 3',5'-cyclic phosphodiesterase 3A (Homo sapiens) (Q14432 whole entry): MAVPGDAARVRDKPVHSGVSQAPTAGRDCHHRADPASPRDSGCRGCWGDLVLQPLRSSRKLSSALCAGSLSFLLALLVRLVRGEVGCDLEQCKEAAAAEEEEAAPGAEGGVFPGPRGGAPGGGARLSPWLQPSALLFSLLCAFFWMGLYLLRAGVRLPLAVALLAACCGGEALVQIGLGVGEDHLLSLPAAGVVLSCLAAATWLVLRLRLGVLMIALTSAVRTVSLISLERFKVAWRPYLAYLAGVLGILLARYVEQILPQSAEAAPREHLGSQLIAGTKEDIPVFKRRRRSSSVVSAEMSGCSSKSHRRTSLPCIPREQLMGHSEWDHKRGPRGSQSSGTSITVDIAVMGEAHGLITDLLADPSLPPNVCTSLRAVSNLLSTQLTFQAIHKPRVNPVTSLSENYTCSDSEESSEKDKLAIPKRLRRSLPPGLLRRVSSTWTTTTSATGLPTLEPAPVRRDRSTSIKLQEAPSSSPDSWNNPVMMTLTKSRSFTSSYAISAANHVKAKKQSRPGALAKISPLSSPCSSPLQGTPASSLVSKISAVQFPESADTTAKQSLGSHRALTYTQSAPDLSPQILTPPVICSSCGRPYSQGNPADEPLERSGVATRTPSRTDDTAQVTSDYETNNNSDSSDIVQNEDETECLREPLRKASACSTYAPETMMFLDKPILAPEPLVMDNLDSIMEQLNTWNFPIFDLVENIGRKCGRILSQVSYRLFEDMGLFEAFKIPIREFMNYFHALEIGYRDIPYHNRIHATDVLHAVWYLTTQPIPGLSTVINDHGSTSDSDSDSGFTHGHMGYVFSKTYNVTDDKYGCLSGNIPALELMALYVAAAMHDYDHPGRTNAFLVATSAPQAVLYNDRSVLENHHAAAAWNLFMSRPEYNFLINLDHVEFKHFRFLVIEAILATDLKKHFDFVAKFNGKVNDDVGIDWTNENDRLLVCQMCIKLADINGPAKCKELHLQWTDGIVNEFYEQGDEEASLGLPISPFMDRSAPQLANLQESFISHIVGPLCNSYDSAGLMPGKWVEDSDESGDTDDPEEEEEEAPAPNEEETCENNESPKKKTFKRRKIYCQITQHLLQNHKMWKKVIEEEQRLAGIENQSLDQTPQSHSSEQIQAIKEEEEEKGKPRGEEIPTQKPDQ
Description: Inhibition of PDE3A (unknown origin) upto 10000 nM

[24] = Clearance in dog at 0.5 mg/kg, iv; assay type: ADME, organism-based, Canis lupus familiaris; settings: in vivo
[25] = target: Adenosine receptor A2a (Homo sapiens) (UniProt P29274); settings: dose <= 10000.0 nM
Description: Inhibition of adenosine A2A receptor (unknown origin) upto 10000 nM

[26] = target: Nuclear receptor subfamily 1 group I member 2 (Homo sapiens, UniProt O75469); assay: Inhibition of PXR (unknown origin) upto 10000 nM; settings: 10 µM
Sequence of Nuclear receptor subfamily 1 group I member 2 (O75469 whole entry): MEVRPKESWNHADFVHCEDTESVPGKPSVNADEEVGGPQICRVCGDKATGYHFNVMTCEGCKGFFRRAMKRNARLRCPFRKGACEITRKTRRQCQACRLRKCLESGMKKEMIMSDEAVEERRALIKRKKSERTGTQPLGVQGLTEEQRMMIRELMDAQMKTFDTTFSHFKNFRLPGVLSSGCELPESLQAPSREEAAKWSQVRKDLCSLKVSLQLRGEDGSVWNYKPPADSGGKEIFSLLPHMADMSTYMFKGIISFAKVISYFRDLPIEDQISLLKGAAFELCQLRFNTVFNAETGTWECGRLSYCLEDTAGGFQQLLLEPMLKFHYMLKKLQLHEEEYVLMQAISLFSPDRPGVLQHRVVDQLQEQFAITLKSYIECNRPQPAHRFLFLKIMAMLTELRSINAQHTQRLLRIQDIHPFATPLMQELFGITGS

[27] = target: Sodium-dependent serotonin transporter (Homo sapiens) (UniProt P31645); settings: dose <= 10000.0 nM
Sequence of Sodium-dependent serotonin transporter (Homo sapiens) (P31645 whole entry, looked up): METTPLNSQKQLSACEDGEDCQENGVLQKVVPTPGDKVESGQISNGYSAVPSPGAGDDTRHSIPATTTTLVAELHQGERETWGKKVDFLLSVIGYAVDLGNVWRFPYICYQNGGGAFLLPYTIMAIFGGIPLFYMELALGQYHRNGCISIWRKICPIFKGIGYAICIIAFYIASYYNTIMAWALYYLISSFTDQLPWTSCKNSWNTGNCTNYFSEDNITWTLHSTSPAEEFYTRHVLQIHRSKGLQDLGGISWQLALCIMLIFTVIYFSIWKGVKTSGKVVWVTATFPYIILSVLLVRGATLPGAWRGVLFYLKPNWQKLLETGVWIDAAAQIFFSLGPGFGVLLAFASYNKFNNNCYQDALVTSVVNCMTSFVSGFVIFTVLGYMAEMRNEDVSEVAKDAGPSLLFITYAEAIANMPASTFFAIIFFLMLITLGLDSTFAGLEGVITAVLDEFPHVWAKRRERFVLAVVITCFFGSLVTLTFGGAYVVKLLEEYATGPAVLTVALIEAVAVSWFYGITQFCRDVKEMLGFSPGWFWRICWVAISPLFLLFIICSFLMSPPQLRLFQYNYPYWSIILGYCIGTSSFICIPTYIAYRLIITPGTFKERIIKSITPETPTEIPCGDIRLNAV
Description: Inhibition of SERT (unknown origin) upto 10000 nM

[28] = Cmax in Wistar Han rat at 100 mg/kg/day, po QD for 7 days; assay type: ADME, organism-based; parameters: dose 100 mg/kg/day, time 7 day, route po; settings: in vivo
[29] = AUC in Wistar Han rat at 30 mg/kg/day, po QD for 7 days; assay type: ADME, organism-based; parameters: dose 30 mg/kg/day, time 7 day, route po; settings: in vivo
[30] = Free AUC (0 to last) in mdx mouse administered orally 10 mins prior to unilateral eccentric contraction and QD for 43 days thereafter; assay type: ADME; settings: in vivo, po, 1032 h, time 43 day
[31] = Solubility of the compound in FaSSIF at pH 6.5 measured after 4 hrs by HPLC-UV analysis; assay type: ADME
[32] = target: T1, Hematopoietic prostaglandin D synthase (Rattus norvegicus, UniProt O35543); assay: Inhibition of H-PGDS in rat RBL cells assessed as reduction in A23187-induced PGD2 production pretreated for 30 mins followed by A23187 addition for 30 mins by RapidFire Mass spectrometry; assay type: cell-based
T1 sequence (O35543 whole entry): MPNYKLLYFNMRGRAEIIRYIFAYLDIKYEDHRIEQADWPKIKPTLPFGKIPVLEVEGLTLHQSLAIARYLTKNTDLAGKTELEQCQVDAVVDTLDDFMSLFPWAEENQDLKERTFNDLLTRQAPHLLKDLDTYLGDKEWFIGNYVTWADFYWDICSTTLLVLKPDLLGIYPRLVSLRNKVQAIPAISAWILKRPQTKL

[33] = target: Amine oxidase [flavin-containing] A (Homo sapiens, UniProt P21397); assay: Inhibition of MAO-A (unknown origin) upto 10000 nM; settings: 10 µM
Sequence of Amine oxidase [flavin-containing] A (P21397 whole entry): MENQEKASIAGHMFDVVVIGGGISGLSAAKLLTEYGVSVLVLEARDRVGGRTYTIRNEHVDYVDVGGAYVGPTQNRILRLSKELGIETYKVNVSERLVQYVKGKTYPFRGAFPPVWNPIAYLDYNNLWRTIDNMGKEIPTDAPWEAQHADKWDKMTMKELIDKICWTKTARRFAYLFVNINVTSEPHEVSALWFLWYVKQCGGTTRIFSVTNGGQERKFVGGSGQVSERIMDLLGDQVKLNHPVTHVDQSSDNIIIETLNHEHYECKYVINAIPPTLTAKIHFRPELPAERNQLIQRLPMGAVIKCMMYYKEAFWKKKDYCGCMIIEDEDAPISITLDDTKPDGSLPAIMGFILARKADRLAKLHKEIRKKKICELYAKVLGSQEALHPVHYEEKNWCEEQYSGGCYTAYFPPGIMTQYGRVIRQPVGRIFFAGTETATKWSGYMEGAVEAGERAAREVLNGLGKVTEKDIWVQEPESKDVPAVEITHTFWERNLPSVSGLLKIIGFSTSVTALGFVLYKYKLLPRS

[34] = Cmax in Wistar Han rat at 10 mg/kg/day, po QD for 7 days; assay type: ADME, organism-based; parameters: time 7 day, dose 10 mg/kg/day, route po; settings: in vivo
[35] = Toxicity in dog assessed as decreased cortical lymphoid cellularity in thymus at 75 mg/kg/day, po QD for 4 days by microscopic analysis; assay type: organism-based, Canis lupus familiaris; settings: in vivo, 96 h, time 4 day
[36] = Oral bioavailability in mouse at 3 mg/kg; assay type: ADME, organism-based; settings: in vivo
[37] = Toxicity in dog assessed as clinical pathological changes by measuring increase in red cell mass at 75 mg/kg/day, po QD for 4 days; assay type: organism-based, Canis lupus familiaris; settings: in vivo, 96 h, time 4 day
[38] = Genotoxicity in Salmonella typhimurium in presence of metabolic activation by Ames test; assay type: toxicity; settings: salmonella enterica subsp. enterica serovar typhimurium
[39] = target: D(2) dopamine receptor (Homo sapiens) (UniProt P14416); settings: dose <= 10000.0 nM
Sequence of D(2) dopamine receptor (Homo sapiens) (P14416 whole entry): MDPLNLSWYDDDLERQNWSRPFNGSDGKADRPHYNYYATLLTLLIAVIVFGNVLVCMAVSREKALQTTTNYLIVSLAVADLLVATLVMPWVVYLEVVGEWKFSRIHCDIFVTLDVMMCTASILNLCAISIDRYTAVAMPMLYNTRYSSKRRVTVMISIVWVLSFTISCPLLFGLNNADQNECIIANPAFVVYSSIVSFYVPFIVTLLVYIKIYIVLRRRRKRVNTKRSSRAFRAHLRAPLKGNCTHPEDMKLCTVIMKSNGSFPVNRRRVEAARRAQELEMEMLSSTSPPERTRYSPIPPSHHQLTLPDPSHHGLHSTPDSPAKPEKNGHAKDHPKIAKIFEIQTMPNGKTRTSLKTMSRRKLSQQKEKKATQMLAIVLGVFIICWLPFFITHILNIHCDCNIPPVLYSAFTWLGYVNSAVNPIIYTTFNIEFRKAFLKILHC
Description: Inhibition of dopamine D2 receptor (unknown origin) upto 10000 nM

[40] = target: Potassium voltage-gated channel subfamily A member 5 (Homo sapiens) (UniProt P22460); settings: dose <= 10000.0 nM
Description: Inhibition of Kv1.5 channel (unknown origin) upto 10000 nM

[41] = Free Cmax in mdx mouse administered orally 10 mins prior to unilateral eccentric contraction and QD for 43 days thereafter; assay type: ADME; settings: in vivo, po, 1032 h, time 43 day

With `CC(C)(O)[C@H]1CC[C@H](NC(=O)c2cnc3nc(C4CC4)ccc3c2)CC1` the Activity [1] was “Toxic”, the Activity [2] was “Non-Toxic” and the fCmax [3] was 370 ng/mL. For the same compound, the ED50 [4] was 1.1 mg/kg, the Papp at 3 h [5] was 4.4 ×10⁻⁶ cm/s and the Activity [6] was “Non-Toxic”. The Cmax [7] was 13000 ng/mL, the half-life [8] was 2.9 h and the AUC at 96 h [9] was 120 µg·h/mL. It also gave an AUC at 168 h [10] of 120 µg·h/mL, a half-life [11] of 6.2 h and a Kp [12] of 0.06. For the same compound, the inhibition [13] was “inactive”, the inhibition [14] was “inactive” and the inhibition [15] was “inactive”. For the same compound, the Activity [16] was “Non-Toxic”, the inhibition [17] was “inactive” and the Activity [18] was “Toxic”. For the same compound, the ED50 [19] was 0.0031 mg/kg, the Activity [20] was “Non-Toxic” and the Activity [21] was “Non-Toxic”. The Activity [22] was 90%, the inhibition [23] was “inactive” and the clearance [24] was 1.9 mL/min/kg. The inhibition [25] was “inactive”, the “inhibition (INH)” value [26] was “Not Active” and the inhibition [27] was “inactive”. It also gave a Cmax [28] of 57000 ng/mL, an AUC at 168 h [29] of 410 µg·h/mL and a fAUClast [30] of 0.2 µg·h/mL. The solubility at 4 h [31] was 140 µg/mL (≈ 396 µM), the EC50 [32] was 42 nM and the “inhibition (INH)” value [33] was “Not Active”. For the same compound, the Cmax [34] was 8700 ng/mL, the Activity [35] was “Toxic” and the bioavailability [36] was 71%. The Activity [37] was “Toxic”, the Activity [38] was “Non-Toxic” and the inhibition [39] was “inactive”. For the same compound, the inhibition [40] was “inactive” and the fCmax [41] was 49 ng/mL.
